Test results from patent US6710064B2, “Hydantoin compounds useful as anti-inflammatory agents” (Bristol-Myers Squibb Co., priority 2000, dated 2004).

melting point: 135 °C
SMILES: O=C1[C@H]2C[C@@H](OCc3ccc(Br)cc3)CN2C(=O)N1c1cc(Cl)cc(Cl)c1 [Example 6, (7aR,6R)-2-(3,5-dichloro-phenyl)-6-(4-bromobenzyloxy)-tetrahydro-pyrrolo[1,2-c]imidazole-1,3-dione]
